In US20230146455A1, “TREATMENT OF INFLAMMATORY DISEASES WITH PEPTIDES AND PHARMACEUTICAL COMPOSITIONS” (Yuyu Pharma, Inc., priority 2020, published 2023):
Several values for one entry are separate records, joined by “and”; a condition that tells them apart may be missing. Identical values can stand only once. Where a SMILES comes first, the peptide text is derived from it. [ ]: non-standard residue; d: D form. Hyp = O=C(O)[C@@H]1C[C@@H](O)CN1

Tested on: IL-4
Experiment: Example 9 Luminex, LPS hPBMCs: IL-4
Type: cell-based, human
Method: Treatment Human PBMCs were pretreated with YY-101, YDE-011 and YDE-043 or reference compound; Xiidra® at various concentration (ranging from 1 nM to 100 uM) for 2 h before stimulation. An equal volume of 0.5% DMSO was used as a vehicle control. Then, the cells were treated with LPS at 5 ug/ml. The supernatants from treated cells were harvested at 24 h and placed in a 96 well for Luminex cytokine & chemokine profiling using a Luminex 200 multiplex assay (Luminex; R&D system, USA).
The main study arm with triplicate wells per group in a 24-well plate: • 1. Blank • 2. PBMC: 0.5% DMSO • 3. PBMC+LPS (5 ug/ml) • 4. PBMC+YY-101 100 uM • 5. PBMC+YY-101 10 uM • 6. PBMC+YY-101 1 uM • 7. PBMC+YY-101 0.1 uM • 8. PBMC+YY-101 0.01 uM • 9. PBMC+LPS (5 ug/ml)+Xiidra®100 uM • 10. PBMC+LPS (5 ug/ml)+Xiidra® 10 uM • 11. PBMC+LPS (5 ug/ml)+Xiidra® 1 uM • 12. PBMC+LPS (5 ug/ml)+Xiidra®0.1 uM • 13. PBMC+LPS (5 ug/ml)+Xiidra®0.01 uM • 14. PBMC+LPS (5 ug/ml)+Xiidra®0.001 uM • 15. PBMC+LPS (5 ug/ml)+YY-101 100 uM • 16. PBMC+LPS (5 ug/ml)+YY-101 10 uM • 17. PBMC+LPS (5 ug/ml)+YY-101 1 uM • 18. PBMC+LPS (5 ug/ml)+YY-101 0.1 uM • 19. PBMC+LPS (5 ug/ml)+YY-101 0.01 uM • 20. PBMC+LPS (5 ug/ml)+YY-101 0.001 uM • 21. PBMC+LPS (5 ug/ml)+YDE-011 100 uM • 22. PBMC+LPS (5 ug/ml)+YDE-011 10 uM • 23. PBMC+LPS (5 ug/ml)+YDE-011 1 uM • 24. PBMC+LPS (5 ug/ml)+YDE-011 0.1 uM • 25. PBMC+LPS (5 ug/ml)+YDE-011 0.01 uM • 26. PBMC+LPS (5 ug/ml)+YDE-011 0.001 uM • 27. PBMC+LPS (5 ug/ml)+YDE-043 100 uM • 28. PBMC+LPS (5 ug/ml)+YDE-043 10 uM • 29. PBMC+LPS (5 ug/ml)+YDE-043 1 uM • 30. PBMC+LPS (5 ug/ml)+YDE-043 0.1 uM • 31. PBMC+LPS (5 ug/ml)+YDE-043 0.01 uM • 32. PBMC+LPS (5 ug/ml)+YDE-043 0.001 uM
Multiplex assay was used to measure 30 cytokines and chemokines. The 1:2, 1:10 and 1:200 diluted cell supernatant and serial dilution of the standard were dispensed into a 96 well plate at 50 ul/well. Then, the pre-mixed cocktail of antibody-coated magnetic beads was dispensed at 50 ul/well and incubated at room temperature for 2 h in a horizontal orbital microplate shaker at 800±500 rpm. The beads were washed using a magnetic device to prevent loss. The biotin-antibody was dispensed in 50 ul of each well and incubated at room temperature for 1 h in a shaker at 800±500 rpm. After washing, streptavidin-PE was added at 50 ul/well and incubated at room temperature for 30 min in a shaker under the same conditions. Finally, after washing, wash buffer (100 ul/well) was added to the plate and incubated in a shaker for 2 min. The Luminex™ 200 setting were set according to the manufacturer's protocol. The data was calculated with a standard five-parameter logistic nonlinear regression analysis of the data (xPonent software 4.2, USA). The levels of cytokine/chemokine are normalized to the live cell counts (1×10^5 cells/mL) and presented as concentrations per mL (pg/mL or ng/mL).

[1] = PBMC + LPS(5 ug/ml) + test article 0.001 uM, Mean
[2] = PBMC + LPS(5 ug/ml) + test article 0.001 uM, single replicates
[3] = PBMC + LPS(5 ug/ml) + test article 0.01 uM, Mean
[4] = PBMC + LPS(5 ug/ml) + test article 0.01 uM, single replicates
[5] = PBMC + LPS(5 ug/ml) + test article 0.1 uM, Mean
[6] = PBMC + LPS(5 ug/ml) + test article 0.1 uM, single replicates
[7] = PBMC + LPS(5 ug/ml) + test article 1 uM, Mean
[8] = PBMC + LPS(5 ug/ml) + test article 1 uM, single replicates
[9] = PBMC + LPS(5 ug/ml) + test article 10 uM, Mean
[10] = PBMC + LPS(5 ug/ml) + test article 10 uM, single replicates
[11] = PBMC + LPS(5 ug/ml) + test article 100 uM, Mean
[12] = PBMC + LPS(5 ug/ml) + test article 100 uM, single replicates
[13] = PBMC + test article 0.01 uM, no LPS, Mean
[14] = PBMC + test article 0.01 uM, no LPS, single replicates
[15] = PBMC + test article 0.1 uM, no LPS, Mean
[16] = PBMC + test article 0.1 uM, no LPS, single replicates
[17] = PBMC + test article 1 uM, no LPS, Mean
[18] = PBMC + test article 1 uM, no LPS, single replicates
[19] = PBMC + test article 10 uM, no LPS, Mean
[20] = PBMC + test article 10 uM, no LPS, single replicates
[21] = PBMC + test article 100 uM, no LPS, Mean
[22] = PBMC + test article 100 uM, no LPS, single replicates

## CC(C)C[C@H](NC(=O)CNC(=O)[C@H](CC(=O)O)NC(=O)[C@H](CCC(N)=O)NC(=O)CNC(=O)[C@@H]1C[C@@H](O)CN1)C(=O)N[C@@H](C)C(=O)NCC(=O)N1CCC[C@H]1C(=O)N[C@@H](CCCCN)C(=O)O [YY-101] (H-[Hyp]GQDGLAGPK-OH; N-terminus and C-terminus assumed)
[1]
  Concentration, Bead name: IL-4: 26.0 pg/mL
  MFI, Bead name: IL-4: 1.0
  conc/live cell, Bead name: IL-4: 4.0 pg/10^5
[2]
  Concentration, Bead name: IL-4: 18.4 pg/mL and 33.2 pg/mL and 26.4 pg/mL
  MFI, Bead name: IL-4: 0.0 and 2.0 and 1.0
  conc/live cell, Bead name: IL-4: 3.2 pg/10^5 and 4.7 pg/10^5 and 4.0 pg/10^5
[3]
  Concentration, Bead name: IL-4: 33.2 pg/mL
  MFI, Bead name: IL-4: 2.0
  conc/live cell, Bead name: IL-4: 5.4 pg/10^5
[4]
  Concentration, Bead name: IL-4: 33.2 pg/mL
  MFI, Bead name: IL-4: 2.0
  conc/live cell, Bead name: IL-4: 5.2 pg/10^5 and 5.5 pg/10^5 and 5.4 pg/10^5
[5]
  Concentration, Bead name: IL-4: 39.2 pg/mL
  MFI, Bead name: IL-4: 3.0
  conc/live cell, Bead name: IL-4: 6.8 pg/10^5
[6]
  Concentration, Bead name: IL-4: 39.4 pg/mL and 45.1 pg/mL and 33.2 pg/mL
  MFI, Bead name: IL-4: 3.0 and 4.0 and 2.0
  conc/live cell, Bead name: IL-4: 6.4 pg/10^5 and 8.7 pg/10^5 and 5.4 pg/10^5
[7]
  Concentration, Bead name: IL-4: 33.2 pg/mL
  MFI, Bead name: IL-4: 2.0
  conc/live cell, Bead name: IL-4: 5.1 pg/10^5
[8]
  Concentration, Bead name: IL-4: 33.2 pg/mL
  MFI, Bead name: IL-4: 2.0
  conc/live cell, Bead name: IL-4: 5.3 pg/10^5 and 4.7 pg/10^5 and 5.4 pg/10^5
[9]
  Concentration, Bead name: IL-4: 23.7 pg/mL
  MFI, Bead name: IL-4: 0.7
  conc/live cell, Bead name: IL-4: 3.6 pg/10^5
[10]
  Concentration, Bead name: IL-4: 26.4 pg/ml (2×) and 18.4 pg/ml
  MFI, Bead name: IL-4: 1.0 (2×) and 0.0
  conc/live cell, Bead name: IL-4: 4.4 pg/10^5 and 4.1 pg/10^5 and 2.4 pg/10^5
[11]
  Concentration, Bead name: IL-4: 14.8 pg/mL
  MFI, Bead name: IL-4: −0.3
  conc/live cell, Bead name: IL-4: 2.5 pg/10^5
[12]
  Concentration, Bead name: IL-4: 18.4 pg/ml (2×) and 7.7 pg/ml
  MFI, Bead name: IL-4: 0.0 (2×) and −1.0
  conc/live cell, Bead name: IL-4: 2.9 pg/10^5 and 3.0 pg/10^5 and 1.5 pg/10^5
[13]
  Concentration, Bead name: IL-4: 27.9 pg/mL
  MFI, Bead name: IL-4: 1.3
  conc/live cell, Bead name: IL-4: 5.6 pg/10^5
[14]
  Concentration, Bead name: IL-4: 22.6 pg/mL and 33.2 pg/mL
  MFI, Bead name: IL-4: 0.5 and 2.0
  conc/live cell, Bead name: IL-4: 4.3 pg/10^5 and 6.9 pg/10^5
[15]
  Concentration, Bead name: IL-4: 29.8 pg/mL
  MFI, Bead name: IL-4: 1.5
  conc/live cell, Bead name: IL-4: 5.9 pg/10^5
[16]
  Concentration, Bead name: IL-4: 26.4 pg/mL and 33.2 pg/mL
  MFI, Bead name: IL-4: 1.0 and 2.0
  conc/live cell, Bead name: IL-4: 6.0 pg/10^5 and 5.7 pg/10^5
[17]
  Concentration, Bead name: IL-4: 18.4 pg/mL
  MFI, Bead name: IL-4: 0.0
  conc/live cell, Bead name: IL-4: 3.3 pg/10^5
[18]
  Concentration, Bead name: IL-4: 18.4 pg/mL
  MFI, Bead name: IL-4: 0.0
  conc/live cell, Bead name: IL-4: 3.3 pg/10^5
[19]
  Concentration, Bead name: IL-4: 47.4 pg/mL
  MFI, Bead name: IL-4: 4.5
  conc/live cell, Bead name: IL-4: 7.6 pg/10^5
[20]
  Concentration, Bead name: IL-4: 55.5 pg/mL and 39.4 pg/mL
  MFI, Bead name: IL-4: 6.0 and 3.0
  conc/live cell, Bead name: IL-4: 8.7 pg/10^5 and 6.5 pg/10^5
[21]
  Concentration, Bead name: IL-4: 13.0 pg/mL
  MFI, Bead name: IL-4: −0.5
  conc/live cell, Bead name: IL-4: 1.9 pg/10^5
[22]
  Concentration, Bead name: IL-4: 7.7 pg/mL and 18.4 pg/mL
  MFI, Bead name: IL-4: −1.0 and 0.0
  conc/live cell, Bead name: IL-4: 1.2 pg/10^5 and 2.6 pg/10^5
